Molecular target: T1, EGFR del746-750 T790M (Homo sapiens, UniProt P00533, DEL746-750/T790M)
T1 construct: purchased Carna Biosciences 08-528
Test: EGFR del746-750 T790M biochemical assay (Caliper mobility shift)
Details: 5 μM ATP, 30 min, room temperature; apparent Ki (Morrison) converted by Cheng-Prusoff, Km of ATP 2.1 μM; read-out: EGFR(T790M/d746-750) Ki

T1 sequence (P00533 with tags, fused parts or gaps DEL746-750/T790M limits assumed): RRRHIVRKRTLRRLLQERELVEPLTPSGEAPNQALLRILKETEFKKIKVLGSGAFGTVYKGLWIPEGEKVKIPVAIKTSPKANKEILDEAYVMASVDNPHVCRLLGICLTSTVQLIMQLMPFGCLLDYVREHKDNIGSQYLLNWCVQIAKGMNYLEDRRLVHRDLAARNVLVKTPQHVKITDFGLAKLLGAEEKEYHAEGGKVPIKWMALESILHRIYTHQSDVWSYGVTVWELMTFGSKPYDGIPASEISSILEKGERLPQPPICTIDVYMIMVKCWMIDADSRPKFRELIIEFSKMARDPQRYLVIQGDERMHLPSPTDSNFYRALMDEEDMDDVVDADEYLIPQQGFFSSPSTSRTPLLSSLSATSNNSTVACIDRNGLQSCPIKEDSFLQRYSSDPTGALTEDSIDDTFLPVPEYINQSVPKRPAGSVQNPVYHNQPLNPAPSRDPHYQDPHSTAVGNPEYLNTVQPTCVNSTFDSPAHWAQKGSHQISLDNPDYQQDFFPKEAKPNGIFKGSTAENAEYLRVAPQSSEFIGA

First: Cc1cn[nH]c1-c1cn(C(C)C)c2cc(Nc3ccnc(-c4cnn(S(=O)(=O)C5CC5)c4)n3)ncc12 [Example 346, N-(2-(1-(cyclopropylsulfonyl)-1H-pyrazol-4-yl)pyrimidin-4-yl)-1-isopropyl-3-(4-methyl-1H-pyrazol-5-yl)-1H-pyrrolo[3,2-c]pyridin-6-amine]
Second: Cc1c(-c2cn(C(C)C)c3cc(Nc4ccnc(-c5cnn(S(=O)(=O)C6CC6)c5)n4)ncc23)cnn1CCO [Example 438, 2-(4-(6-(2-(1-(cyclopropylsulfonyl)-1H-pyrazol-4-yl)pyrimidin-4-ylamino)-1-isopropyl-1H-pyrrolo[3,2-c]pyridin-3-yl)-5-methyl-1H-pyrazol-1-yl)ethanol]
The Ki of the first is 2.9-fold higher: 3.07 nM for the first, 1.06 nM for the second. The second binds more tightly here.

First: Cc1cn[nH]c1-c1cn(C(C)C)c2cc(Nc3ccnc(N4CCC(O)C(C)(C)C4)n3)ncc12 (stereo not shown) [Example 347, 1-(4-((1-Isopropyl-3-(4-methyl-1H-pyrazol-5-yl)-1H-pyrrolo[3,2-c]pyridin-6-yl)amino)pyrimidin-2-yl)-3,3-dimethylpiperidin-4-ol]
Second: Cc1nc2cnc(Nc3ccnc(N4CCC(O)C(C)(C)C4)n3)cc2n1C(C)C (stereo not shown) [Example 427, 1-(4-((1-isopropyl-2-methyl-1H-imidazo[4,5-c]pyridin-6-yl)amino)pyrimidin-2-yl)-3,3-dimethylpiperidin-4-ol]
The Ki of the first is 5.8-fold lower: 20.5 nM for the first, 119 nM for the second. The first binds more tightly here.

First: CO[C@H]1CCN(c2nccc(Nc3cc4c(cn3)c(-c3nn(CCO)cc3C)cn4C(C)C)n2)C[C@H]1F [Example 348, 2-(3-(6-((2-((3R,4S)-3-Fluoro-4-methoxypiperidin-1-yl)pyrimidin-4-yl)amino)-1-isopropyl-1H-pyrrolo[3,2-c]pyridin-3-yl)-4-methyl-1H-pyrazol-1-yl)ethanol]
Second: COC1CCN(c2nccc(Nc3cc4c(cn3)c(-c3cnn(CCO)c3)cn4C(C)C)n2)CC1 [Example 402, 2-(4-(1-isopropyl-6-((2-(4-methoxypiperidin-1-yl)pyrimidin-4-yl)amino)-1H-pyrrolo[3,2-c]pyridin-3-yl)-1H-pyrazol-1-yl)ethanol]
The Ki of the first is 23-fold higher: 19.6 nM for the first, 0.84 nM for the second.

`COC1CCN(c2nccc(Nc3cc4c(cn3)nc(C)n4C(C)CC#N)n2)CC1` (stereo not shown) [Example 349, 3-(6-((2-(4-Methoxypiperidin-1-yl)pyrimidin-4-yl)amino)-2-methyl-1H-imidazo[4,5-c]pyridin-1-yl)butanenitrile] and `COC1CCN(c2nccc(Nc3cc4c(cn3)nc(C)n4Cc3ccccc3)n2)CC1` [Example 356, 1-Benzyl-N-[2-(4-methoxy-1-piperidyl)pyrimidin-4-yl]-2-methyl-imidazo[4,5-c]pyridin-6-amine] are within 1.5-fold of each other in Ki: 692 nM for the first, 562 nM for the second.

Compared with `Cc1cc(-c2nccc(Nc3cc4c(cn3)nc(C)n4C(C)C)n2)sn1` [Example 360, 1-Isopropyl-2-methyl-N-(2-(3-methylisothiazol-5-yl)pyrimidin-4-yl)-1H-imidazo[4,5-c]pyridin-6-amine], `Cc1n[nH]cc1-c1nccc(Nc2cc3c(cn2)nc(C)n3C(C)C)n1` [Example 399, 1-isopropyl-2-methyl-N-(2-(3-methyl-1H-pyrazol-4-yl)pyrimidin-4-yl)-1H-imidazo[4,5-c]pyridin-6-amine] is 2.1-fold lower in Ki: 29.7 nM for the first, 14.1 nM for the second.

First: Cc1nc2cnc(Nc3ccnc(-c4cn(C)nc4N)n3)cc2n1C(C)C [Example 363, N-(2-(3-Amino-1-methyl-1H-pyrazol-4-yl)pyrimidin-4-yl)-1-isopropyl-2-methyl-1H-imidazo[4,5-c]pyridin-6-amine]
Second: Cc1nc2cnc(Nc3ccnc(-c4cnn(C)c4)n3)cc2n1C(C)C [Example 365, 1-Isopropyl-2-methyl-N-(2-(1-methyl-1H-pyrazol-4-yl)pyrimidin-4-yl)-1H-imidazo[4,5-c]pyridin-6-amine]
The Ki of the first is 1.5-fold lower: 31 nM for the first, 46.5 nM for the second.

First: Cc1nc2cnc(Nc3ccnc(-c4cnoc4)n3)cc2n1C(C)C [Example 366]
Second: Cc1nc2cnc(Nc3ccnc(-c4cnn(CCCN)c4)n3)cc2n1C(C)C [Example 430, N-(2-(1-(3-aminopropyl)-1H-pyrazol-4-yl)pyrimidin-4-yl)-1-isopropyl-2-methyl-1H-imidazo[4,5-c]pyridin-6-amine]
The Ki of the first is 3.2-fold lower: 14.7 nM for the first, 47.7 nM for the second.

Compared with `CCC(C)n1cc(C(=O)NC2CCCOC2)c2cnc(Nc3ccnc(N4CCC(O)C(C)(C)C4)n3)cc21` (stereo not shown) [Example 374, 1-(sec-butyl)-6-((2-(4-hydroxy-3,3-dimethylpiperidin-1-yl)pyrimidin-4-yl)amino)-N-(tetrahydro-2H-pyran-3-yl)-lH-pyrrolo[3,2-c]pyridine-3-carboxamide], `CO[C@@H]1CCN(c2nccc(Nc3cc4c(cn3)c(C(=O)NC3CCOCC3)cn4C(C)C)n2)C[C@@H]1F` [Example 380, 6-((2-((3S,4R)-3-fluoro-4-methoxypiperidin-1-yl)pyrimidin-4-yl)amino)-1-isopropyl-N-(tetrahydro-2H-pyran-4-yl)-1H-pyrrolo [3,2-c]pyridine-3-carboxamide] is 2.1-fold higher in Ki: 3.31 nM for the first, 6.96 nM for the second. The first binds more tightly here.

Compared with `CO[C@H]1CCN(c2nccc(Nc3cc4c(cn3)c(C(=O)NC3CCOCC3)cn4C(C)C)n2)C[C@H]1F` [Example 381, 6-((2-((3R,4S)-3-fluoro-4-methoxypiperidin-1-yl)pyrimidin-4-yl)amino)-1-isopropyl-N-(tetrahydro-2H-pyran-4-yl)-1H-pyrrolo [3,2-c]pyridine-3-carboxamide], `CC(C)n1cc(C(=O)NC2COC2)c2cnc(Nc3ccnc(-c4cnn(S(=O)(=O)C5CC5)c4)n3)cc21` [Example 386, 6-((2-(1-(cyclopropylsulfonyl)-1H-pyrazol-4-yl)pyrimidin-4-yl)amino)-1-isopropyl-N-(oxetan-3-yl)-1H-pyrrolo[3,2-c]pyridine-3-carboxamide] is 8.4-fold lower in Ki: 9.29 nM for the first, 1.11 nM for the second.

Going from `CC(C)n1cc(C(=O)NC2COC2)c2cnc(Nc3ccnc(-c4cnn(S(=O)(=O)N5CCCC5)c4)n3)cc21` [Example 388, 1-isopropyl-N-(oxetan-3-yl)-6-((2-(1-(pyrrolidin-1-ylsulfonyl)-1H-pyrazol-4-yl)pyrimidin-4-yl)amino)-1H-pyrrolo[3,2-c]pyridine-3-carboxamide] to `CC(C)n1cc(-c2cnn(C3COC3)c2)c2cnc(Nc3ccnc(-c4cnn(S(=O)(=O)C5CC5)c4)n3)cc21` [Example 441, N-(2-(1-(cyclopropylsulfonyl)-1H-pyrazol-4-yl)pyrimidin-4-yl)-1-isopropyl-3-(1-(oxetan-3-yl)-1H-pyrazol-4-yl)-1H-pyrrolo[3,2-c]pyridin-6-amine], the Ki falls from 29 nM to 0.8 nM (36-fold).

`CCS(=O)(=O)n1cc(-c2nccc(Nc3cc4c(cn3)c(-c3cnn(CCS(C)(=O)=O)c3)cn4C(C)C)n2)cn1` [Example 392, N-(2-(1-(ethylsulfonyl)-1H-pyrazol-4-yl)pyrimidin-4-yl)-1-isopropyl-3-(1-(2-(methylsulfonyl)ethyl)-1H-pyrazol-4-yl)-1H-pyrrolo[3,2-c]pyridin-6-amine] and `Cc1nn(CCO)cc1-c1cn(C(C)C)c2cc(Nc3ccnc(-c4cnn(S(=O)(=O)C5CC5)c4)n3)ncc12` [Example 437, 2-(4-(6-(2-(1-(cyclopropylsulfonyl)-1H-pyrazol-4-yl)pyrimidin-4-ylamino)-1-isopropyl-1H-pyrrolo[3,2-c]pyridin-3-yl)-3-methyl-1H-pyrazol-1-yl)ethanol] are within 1.5-fold of each other in Ki: 1.41 nM for the first, 1.21 nM for the second.

Going from `Cc1nc2cnc(Nc3ccnc(-c4cnn(S(=O)(=O)N(C)C)c4)n3)cc2n1C(C)C` [Example 397, 4-(4-((1-isopropyl-2-methyl-1H-imidazo[4,5-c]pyridin-6-yl)amino)pyrimidin-2-yl)-N,N-dimethyl-1H-pyrazole-1-sulfonamide] to `Cc1nc2cnc(Nc3ccnc(-c4cnn(S(=O)(=O)C(C)C)c4)n3)cc2n1C(C)C` [Example 409, 1-isopropyl-N-(2-(1-(isopropylsulfonyl)-1H-pyrazol-4-yl)pyrimidin-4-yl)-2-methyl-1H-imidazo[4,5-c]pyridin-6-amine], the Ki falls from 14.5 nM to 1.97 nM (7.4-fold). The second binds more tightly here.

Compared with `COC1CCN(c2nccc(Nc3cc4c(cn3)c(-c3cn[nH]c3)cn4C(C)C)n2)CC1` [Example 401, 1-isopropyl-N-(2-(4-methoxypiperidin-1-yl)pyrimidin-4-yl)-3-(1H-pyrazol-4-yl)-1H-pyrrolo[3,2-c]pyridin-6-amine], `COC1CCN(c2nccc(Nc3cc4c(cn3)c(-c3cnn(CC(N)=O)c3)cn4C(C)C)n2)CC1` [Example 410, 2-(4-(1-isopropyl-6-((2-(4-methoxypiperidin-1-yl)pyrimidin-4-yl)amino)-1H-pyrrolo[3,2-c]pyridin-3-yl)-1H-pyrazol-1-yl)acetamide] is 1.8-fold higher in Ki: 2.66 nM for the first, 4.86 nM for the second. The first binds more tightly here.

`COC1CCN(c2nccc(Nc3cc4c(cn3)c(-c3ccn(CC(N)=O)n3)cn4C(C)C)n2)CC1` [Example 411, 2-(3-(1-isopropyl-6-((2-(4-methoxypiperidin-1-yl)pyrimidin-4-yl)amino)-1H-pyrrolo[3,2-c]pyridin-3-yl)-1H-pyrazol-1-yl) acetamide] and `Cc1cc(-c2cn(C(C)C)c3cc(Nc4ccnc(-c5cnn(S(=O)(=O)C6CC6)c5)n4)ncc23)nn1CCO` [Example 435, 2-(3-(6-(2-(1-(cyclopropylsulfonyl)-1H-pyrazol-4-yl)pyrimidin-4-ylamino)-1-isopropyl-1H-pyrrolo[3,2-c]pyridin-3-yl)-5-methyl-1H-pyrazol-1-yl)ethanol] are within 1.5-fold of each other in Ki: 3.13 nM for the first, 2.36 nM for the second.

First: CC(C)n1c(CO)nc2cnc(Nc3ccnc(N4CCC(C)(O)CC4)n3)cc21 [Example 418, 1-(4-((2-(hydroxymethyl)-1-isopropyl-1H-imidazo[4,5-c]pyridin-6-yl)amino)pyrimidin-2-yl)-4-methylpiperidin-4-ol]
Second: CC(C)n1cc(-c2cn3c(n2)CNCC3)c2cnc(Nc3ccnc(-c4cnn(S(=O)(=O)C5CC5)c4)n3)cc21 [Example 442, N-(2-(1-(cyclopropylsulfonyl)-1H-pyrazol-4-yl)pyrimidin-4-yl)-1-isopropyl-3-(5,6,7,8-tetrahydroimidazo[1,2-a]pyrazin-2-yl)-1H-pyrrolo[3,2-c]pyridin-6-amine]
The Ki of the first is 210-fold higher: 169 nM for the first, 0.81 nM for the second.

`Cc1cc(-c2cn(C(C)C)c3cc(Nc4ccnc(-c5cnn(S(=O)(=O)C6CC6)c5)n4)ncc23)n(CCO)n1` [Example 436, 2-(5-(6-(2-(1-(cyclopropylsulfonyl)-1H-pyrazol-4-yl)pyrimidin-4-ylamino)-1-isopropyl-1H-pyrrolo[3,2-c]pyridin-3-yl)-3-methyl-1H-pyrazol-1-yl)ethanol] was tested, and the Ki was 1.18 nM.
